Legend:
Assay type in all cases: in vivo
Tomato = conditions: 2500 ppm spray, ten days, rating 1-5
Procedure: (§1) POST-EMERGENT HERBICIDAL TEST
(§2) Experiments were also conducted to determine the phytotoxicity of representative compositions with respect to healthy fresh plants. Solutions of the compounds were prepared as described above to provide a concentration of 2500 parts per million of the test compound. The test plants were sprayed in accordance with the procedure described above for the Mite Foliage Spray Test so as to deliver approximately 100 milliliters of test solution to the leaves of each plant tested. The sprayed plants and controls were set aside for approximately one hour to allow the solutions to dry and were then placed in the greenhouse. After ten days the plants were visually inspected to determine the extent of foliage injury. A rating of 1 indicates no perceptible injury; 5 indicates the plant was dead and ratings of 2, 3 and 4 indicate intermediate degrees of injury based upon the number and extent to which leaves were injured.

Bean = conditions: 2500 ppm spray, ten days, rating 1-5
Procedure: as §1, §2

Corn = conditions: 2500 ppm spray, ten days, rating 1-5
Procedure: as §1, §2

Soybean = conditions: 2500 ppm spray, ten days, rating 1-5
Procedure: as §1, §2

Cotton = conditions: 2500 ppm spray, ten days, rating 1-5
Procedure: as §1, §2

[1] = tested on: bean aphid (Aphis fabae Scop.); test: Bean Aphid Foliage Spray Test; parameters: key: A: excellent control; B: partial control; C: no control; conditions: 500 ppm foliage spray, 24 hours, mortality rating
Procedure: (§3) Suspensions of the test compounds were prepared by dissolving one gram of compound in 50 milliliters of acetone in which had been dissolved 0.1 gram (10 percent of the weight of compound) of an alkylphenoxy polyethoxyethanol surfactant, as an emulsifying or dispersing agent. The resulting solution was mixed into 150 milliliters of water to give roughly 200 milliliters of a suspension containing the compound in finely divided form. The thus-prepared stock suspension contained 0.5 percent by weight of compound. The test concentrations in parts per million by weight employed in the tests described hereinbelow were obtained by appropriate dilutions of the stock suspension with water. The test procedures were as follows:
Bean Aphid Foliage Spray Test
Adults and nymphal stages of the bean aphid (Aphis fabae Scop.) reared on potted dwarf nasturtium plants at 65°-70° F. and 50-70 percent relative humidity, constituted the test insects. For testing purposes, the number of aphids per pot was standardized to 100-150 by trimming plants containing excess aphids.
The test compounds were formulated by diluting the stock suspension with water to give a suspension containing 500 parts of test compound per million parts of final formulation.
The potted plants (one pot per compound tested) infested with 100-150 aphids, were placed on a revolving turntable and sprayed with 100-110 milliliters of test compound formulation by use of a DeVilbiss spray gun set at 40 psig. air pressure. This application, which lasted 25 seconds, was sufficient to wet the plants to run-off. As a control, 100-110 milliliters of a water-acetone-emulsifier solution containing no test compound were also sprayed on infested plants. After spraying, the pots were placed on their sides on a sheet of white standard mimeograph paper which had been previously ruled to facilitate counting. Temperature and humidity in the test room during the 24 hour holding period were 65°-70° F. and 50-70 percent, respectively. Aphids which fell onto the paper and were unable to remain standing after being uprighted were considered dead. Aphids remaining on the plants were observed closely for movement and those which were unable to move the length of the body upon stimulation by prodding were considered dead. Percent mortality was recorded for various concentration levels.
(§4) In these tests the pesticidal activity of the compounds against aphid, mite, Southern Armyworm, Bean Beetle and house fly was rated as follows: […]

[2] = tested on: southern armyworm (Prodenia eridania, (Cram.)); test: Southern Armyworm Leaf Spray Test; parameters: key: A: excellent control; B: partial control; C: no control; conditions: 500 ppm leaf spray, larvae, three days, mortality rating
Procedure: as §3
Southern Armyworm Leaf Spray Test
Larvae of the southern armyworm (Prodenia eridania, (Cram.)), reared on Tendergreen bean plants at a temperature of 80°±5° F. and a relative humidity of 50±5 percent, constituted the test insects.
The test compounds were formulated by diluting the stock suspension with water to give a suspension containing 500 parts of test compound per million parts of final formulation. Potted Tendergreen bean plants of standard height and age were placed on a revolving turntable and sprayed with 100-110 milliliters of test compound formulation by use of a DeVilbiss spray gun set at 10 psig air pressure. This application, which lasted 25 seconds, was sufficient to wet plants to run-off. As a control, 100-110 milliliters of a water-acetone-emulsifier solution containing no test compound were also sprayed on infested plants. When dry, the paired leaves were separated and each one was placed in a 9 centimeter Petri dish lined with moistened filter paper. Five randomly selected larvae were introduced into each dish and the dishes were closed. The closed dishes were labeled and held at 80°-85° F. for three days. Although the larvae could easily consume the whole leaf within twenty-four hours, no more food was added. Larvae which were unable to move the length of the body, even upon stimulation by prodding, were considered dead. Percent mortality was recorded for various concentration levels.
as §4

[3] = tested on: house flies (Musca domestica, L.); test: Fly Bait Test; parameters: key: A: excellent control; B: partial control; C: no control; conditions: 500 ppm in sugar-solution bait, 24 hours, mortality rating
Procedure: as §3
Four to six day old adult house flies (Musca domestica, L.) reared according to the specifications of the Chemical Specialties Manufacturing Association (Blue Book, McNair-Dorland Co., N.Y. 1954; pages 243-244, 261) under controlled conditions of 80°±5° F. and 50±5 percent relative humidity, were the test insects. The flies were immobilized by anesthetizing with carbon dioxide and twenty five immobilized individuals, males and females, were transferred to a cage consisting of a standard food strainer about five inches in diameter which was inverted over a wrapping-paper-covered surface. The test compounds were formulated by diluting the stock suspension with a 10 percent (by weight) sugar solution to give a suspension containing 500 parts of test compound per million parts of final formulation, by weight. Ten milliliters of the test formulation were added to a souffle cup containing a one-inch square of an absorbent cotton pad. This bait cup was introduced and centered on the blotting paper under the food strainer prior to admitting the anesthetized flies. The caged flies were allowed to feed on the bait for twenty four hours, at a temperature of 80°±5° F. and the relative humidity of 50±5 percent.
as §4

[4] = tested on: Mexican bean beetle (Epilachna varivestis, Muls.); test: Mexican Bean Beetle Leaf Spray Test; parameters: key: A: excellent control; B: partial control; C: no control; conditions: 500 ppm leaf spray, fourth instar larvae, three days, mortality rating
Procedure: as §3
Mexican Bean Beetle Leaf Spray Test
Fourth instar larvae of the Mexican bean beetle (Epilachna varivestis, Muls.), reared on Tendergreen bean plants at a temperature of 80°±5° F. and 50±5 percent relative humidity, were the test insects.
The test compounds were formulated by diluting the stock suspension with water to give a suspension containing 500 parts of test compound per million parts of final formulation. Potted Tendergreen bean plants of standard height and age were placed on a revolving turntable and sprayed with 100-110 milliliters of test compound formulation by use of a DeVilbiss spray gun set at 10 psig air pressure. This application, which lasted 25 seconds, was sufficient to wet plants to run-off. As a control, 100-110 milliliters of a water-acetone-emulsifier solution containing no test compound were also sprayed on infested plants. When dry, the paired leaves were separated and each was placed in a 9 centimeter Petri dish lined with moistened filter paper. Five randomly selected larvae were introduced into each dish, and the dishes were closed. The closed dishes were labeled and held at a temperature of 80°±5° F. for three days. Although the larvae could easily consume the leaf within 24 to 48 hours, no more food was added. Larvae which were unable to move the length of the body, even upon stimulation, were considered dead.
as §4

[5] = tested on: two-spotted mite (Tetranychus urticae Koch); test: Mite Foliage Spray Test; parameters: key: A: excellent control; B: partial control; C: no control; conditions: 500 ppm foliage spray, six days, mortality rating
Procedure: as §3
Adults and nymphal stages of the two-spotted mite (Tetranychus urticae Koch), reared on Tendergreen bean plants at 80±5 percent relative humidity, were the test organisms. Infested leaves from a stock culture were placed on the primary leaves of two bean plants six to eight inches in height, growing in a two-and-a-half inch clay pot. 150-200 Mites, a sufficient number for testing, transferred from the excised leaves to the fresh plants in a period of twenty four hours. Following the twenty four hour transfer period, the excised leaves were removed from the infested plants. The test compounds were formulated by diluting the stock suspension with water to give a suspension containing 500 parts of test compound per million parts of final formulation. The potted plants (one pot per compound) were placed on a revolving turntable and sprayed with 100-110 milliliters of test compound formulation by use of a DeVilbiss spray gun set at 40 psig. air pressure. This application, which lasted 25 seconds, was sufficient to wet the plants to run-off. As a control, 100-110 milliliters of a water solution containing acetone and emulsifier in the same concentrations as the test compound formulation, but containing no test compound, were also sprayed on infested plants. The sprayed plants were held at 80±5 percent relative humidity for six days, after which a mortality count of motile forms was made. Microscopic examination for motile forms was made on the leaves of the test plants. Any individual which was capable of locomotion upon prodding was considered living.
as §4

Compound	Phytotoxicity, Tomato (Tomato)	Phytotoxicity, Bean (Bean)	Phytotoxicity, Corn (Corn)	Phytotoxicity, Soybean (Soybean)	Phytotoxicity, Cotton (Cotton)	Pesticidal Activity, Aphid [1]	Pesticidal Activity, Southern Armyworm [2]	Pesticidal Activity, House fly [3]	Pesticidal Activity, Mexican Bean Beetle [4]	Pesticidal Activity, Mite [5]
Cc1cc(OC(=O)N(C)SN(C)C(=O)Oc2ccc(N=CN(C)C)c(C)c2)ccc1N=CN(C)C [drawing 41]	1	1	1	2	1	A	A	A	A	A
Cc1cc(OC(=O)N(C)SN(C)C(=O)Oc2ccc(N=CN(C)C)c(C)c2)ccc1N=CN(C)C [drawing 39]	1	2	1	2	1	A	A	A	A	A
C=CCc1ccc(OC(=O)N(C)SN(C)C(=O)Oc2ccc(CC=C)cc2OC)c(OC)c1	1	1	1	1	1	C	C	C	C	C
CCCCCCCCCCCCc1ccc(OC(=O)N(C)SN(C)C(=O)Oc2cccc3ccccc23)cc1	1	1	1	1	1	C	A	C	A	C
CN(SN(C)C(=O)Oc1cccc2c1OC(C)(C)C2)C(=O)Oc1ccccc1C1SCCS1	1	1	1	1	1	A	A	A	A	B
COC(=O)Nc1ccc(OC(=O)N(C)SN(C)C(=O)Oc2ccc(NC(=O)OC)c(C(C)C)c2)cc1C(C)C	1	1	1	1	1	C	A	C	A	C
CN(SN(C)C(=O)Oc1ccc(Oc2ccccc2)cc1)C(=O)Oc1ccc(Oc2ccccc2)cc1	1	1	1	1	1	C	C	C	C	C
CCCCCCCCCc1ccc(OC(=O)N(C)SN(C)C(=O)Oc2cccc3ccccc23)cc1	1	1	1	1	1	C	A	C	A	C
CN(SN(C)C(=O)Oc1ccccc1C1SCCS1)C(=O)Oc1ccccc1C1SCCS1	1	1	1	1	1	A	A	A	A	C
C#CCOc1ccccc1OC(=O)N(C)SN(C)C(=O)Oc1cccc2ccccc12	1	1	1	2	1	A	A	A	A	C

Reference: patent publication US4264625A, “Pesticidal unsymmetrical bis-arylcarbamate sulfide compounds” (Union Carbide Corporation, priority 1978, dated 1981)
